The results in this text go back to patent US12208088B2 (Genentech, Inc., priority 2018, dated 2025).

For this assay, the target named is HPK1 (Homo sapiens (Human), UniProt Q92918). Briefly: HPK1 Lantha binding assay ("Lanth"). The settings on record: binding assays; Morrison Ki fit. As for the experimental part:
Example B2: HPK1 Lantha Binding Assay (“Lanth”)
Procedure: I. Compound Dilution:
The compounds to be tested were diluted by preparing 12.5 uL/well of 5 mM compound (100×) in columns 2 and 13 and 10 ul/well of DMSO in columns 3-12, 14-23, and wells A1-H1 and I24-P24 of the compound plate using a Bravo liquid handling platform. For the reference compound, the top concentration was 1 mM. To the plate was added 10 ul 2 mM staurosporine in wells J1-P1 and A24-H24. A 11 point 5-fold compound serial dilution was performed using the Bravo liquid handling platform. From the plate were transferred 2.5 ul of the solutions from column 2 and column 13 to the 10 ul of DMSO in columns 3 and 14 & so on. The compound plate was centrifuged at 2500 rpm for 1 min. From the compound plate was transferred 80 nl of the compounds into an assay plate using the Echo liquid handler system. One compound plate makes two assay plates. Each assay plate is sealed and stored in an N2 cabinet.
The following assay concentrations and times were used: 2 nM HPK1, 2 nM Eu-Anti-GST Ab, and 15 nM Tracer222, with 60 min incubation time.
III. HPK Lantha Binding Assay:
For the binding assay, 4 ul 2×HPK1 and Eu-anti-GST antibody were added to each well of the assay plate using a Multidrop reagent dispenser. The solutions were incubated in a 23 C incubator for 1 h. To each well of the assay plate was added 4 ul 2× Tracer-222 using a Multidrop reagent dispenser. The solutions were again incubated in a 23 C incubator for 1 h. The results of the assay were read using an Envision plate reader with the following parameters: TR_FRET, 340 ex/615 and 665em; 100 usec Delay; and 200 usec integration.
Compound Ki was analyzed using Morrison ki fit model in XL-fit • a. fit=(1−((((E+x)+(Ki*(1+(S/Kd))))−(((((E+x)+(Ki*(1+(S/Kd))))^2)−((4*E)*x))^0.5))/(2*E))) • res=(y−fit) • b. Parameters: • E=enzyme concentration • S=Tracer222 concentration, Kd=Tracer222 Kd • All measurements reported using the same units (uM)
Exemplary compounds were tested in the binding assays.

Chain of HPK1 (Q92918 1-346 limits assumed): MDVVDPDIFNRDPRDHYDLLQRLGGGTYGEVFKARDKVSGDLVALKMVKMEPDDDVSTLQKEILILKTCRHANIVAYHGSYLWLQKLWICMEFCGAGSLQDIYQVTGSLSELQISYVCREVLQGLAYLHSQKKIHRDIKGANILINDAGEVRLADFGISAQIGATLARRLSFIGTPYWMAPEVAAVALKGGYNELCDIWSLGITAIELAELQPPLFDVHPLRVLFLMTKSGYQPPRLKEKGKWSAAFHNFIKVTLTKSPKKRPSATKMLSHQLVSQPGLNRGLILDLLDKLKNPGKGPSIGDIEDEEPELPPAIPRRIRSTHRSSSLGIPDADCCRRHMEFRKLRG

For orientation: Ki means the dissociation constant of the complex between target and ligand, obtained from inhibition or displacement. Low values mean a stronger hold on the target, high ones a looser hold on the target. As for “1-(3-(1′,2′-Dihydrospiro[cyclopropane-1,3′-pyrrolo[2,3-b]pyridin]-5′-yl)phenyl)piperazin-2-one [Compound 41]”, the inhibition constant (Ki) is 103 nM. This counts as sub-micromolar.

`O=C1NCCC1c1nc2ccc(-c3cnc4c(c3Cl)C3(CC3)CN4)cc2[nH]1` (racemic) [Compound 283, (±)-3-(6-(4′-Chloro-1′,2′-dihydrospiro[cyclopropane-1,3′-pyrrolo[2,3-b]pyridin]-5′-yl)-1H-benzo[d]imidazol-2-yl)pyrrolidin-2-one] came in with a Ki of 74.2 nM.

Consider `CO[C@@H]1CC[C@@]2(CNc3ncc(-c4ccc(N)c(C(=O)N(C)C)c4F)c(Cl)c32)C1` (relative stereo) [Compound 81a, 6-Amino-3-((1R,3R)-4′-chloro-3-methoxy-1′,2′-dihydrospiro[cyclopentane-1,3′-pyrrolo[2,3-b]pyridin]-5′-yl)-2-fluoro-N,N-dimethylbenzamide], for which the Ki was 39.6 nM. This Ki is about 1.9-fold lower than that of the molecule before.

With `CO[C@H]1CC[C@@]2(CNc3ncc(-c4ccc(N)c(C(=O)N(C)C)c4F)c(Cl)c32)C1` (relative stereo) [Compound 81c, 6-Amino-3-((1R,3S)-4′-chloro-3-methoxy-1′,2′-dihydrospiro[cyclopentane-1,3′-pyrrolo[2,3-b]pyridin]-5′-yl)-2-fluoro-N,N-dimethylbenzamide], the Ki was 17.7 nM. This Ki lies about 2.2-fold lower than the previous one.

Take `CN(C)C(=O)c1c(N)ccc(-c2cnc3c(c2Cl)[C@]2(CC[C@](C)(O)C2)CN3)c1F` (relative stereo) [Compound 82a, 6-Amino-3-((1R,3S)-4′-chloro-3-hydroxy-3-methyl-1′,2′-dihydrospiro[cyclopentane-1,3′-pyrrolo[2,3-b]pyridin]-5′-yl)-2-fluoro-N,N-dimethylbenzamide]: the inhibition constant Ki came out at 8.12 nM. Against the preceding molecule, the Ki is about 2.2-fold lower.

The molecule `CN(C)C(=O)c1c(N)ccc(-c2cnc3c(c2Cl)[C@]2(CC[C@@H](C(N)=O)C2)CN3)c1F` (relative stereo) [Compound 84a, (1R,3R)-5′-(4-amino-3-(dimethylcarbamoyl)-2-fluorophenyl)-4′-chloro-1′,2′-dihydrospiro[cyclopentane-1,3′-pyrrolo[2,3-b]pyridine]-3-carboxamide] gave a Ki of 25.9 nM.

`CN(C)C(=O)c1c(N)ccc(-c2cnc3c(c2Cl)[C@]2(CC[C@H](C(N)=O)C2)CN3)c1F` (relative stereo) [Compound 84c, (1R,3S)-5′-(4-amino-3-(dimethylcarbamoyl)-2-fluorophenyl)-4′-chloro-1′,2′-dihydrospiro[cyclopentane-1,3′-pyrrolo[2,3-b]pyridine]-3-carboxamide]: the affinity, expressed as Ki, was 2.07 nM.

The molecule `C[C@H]1C[C@@]12CNc1ncc(-c3ccc(N)c(C(=O)N(C)C)c3F)cc12` (relative stereo) [Compound 86a, 6-Amino-2-fluoro-N,N-dimethyl-3-((1R,2S)-2-methyl-1′,2′-dihydrospiro[cyclopropane-1,3′-pyrrolo[2,3-b]pyridin]-5′-yl)benzamide] came in with a Ki of 7.9 nM.

As for `CN(C)C(=O)c1c(N)ccc(-c2cnc3c(c2Cl)[C@]2(CC[C@H](n4nccn4)C2)CN3)c1F` (relative stereo) [Compound 89a, 6-Amino-3-((1R,3S)-4′-chloro-3-(2H-1,2,3-triazol-2-yl)-1′,2′-dihydrospiro[cyclopentane-1,3′-pyrrolo[2,3-b]pyridin]-5′-yl)-2-fluoro-N,N-dimethylbenzamide], the Ki turned out to be 6 nM.

With `CN(C)C(=O)c1c(N)ccc(-c2cnc3c(c2Cl)[C@]2(CC[C@H](C#N)C2)CN3)c1F` (relative stereo) [Compound 91a, 6-Amino-3-((1R,3S)-4′-chloro-3-cyano-1′,2′-dihydrospiro[cyclopentane-1,3′-pyrrolo[2,3-b]pyridin]-5′-yl)-2-fluoro-N,N-dimethylbenzamide], the Ki stood at 5.53 nM.

`CNC(=O)[C@H]1CC[C@@]2(CNc3ncc(-c4ccc(N)c(C(=O)N(C)C)c4F)c(Cl)c32)C1` (relative stereo) [Compound 98a, (1R,3S)-5′-(4-Amino-3-(dimethylcarbamoyl)-2-fluorophenyl)-4′-chloro-N-methyl-1′,2′-dihydrospiro[cyclopentane-1,3′-pyrrolo[2,3-b]pyridine]-3-carboxamide] displayed a Ki of 75.6 nM. Against the preceding molecule, the Ki is about 14-fold higher.

`CN(C)C(=O)c1c(N)ccc(-c2cnc3c(c2Cl)[C@]2(CC[C@H](C(=O)NCCO)C2)CN3)c1F` (relative stereo) [Compound 106a, (1R,3S)-5′-(4-Amino-3-(dimethylcarbamoyl)-2-fluorophenyl)-4′-chloro-N-(2-hydroxyethyl)-1′,2′-dihydrospiro[cyclopentane-1,3′-pyrrolo[2,3-b]pyridine]-3-carboxamide] registered a Ki of 23.6 nM. This Ki is about 3.2-fold lower than that of the molecule before.

In turn, `Cc1noc([C@H]2CC[C@@]3(CNc4ncc(-c5ccc(N)c(C(=O)N(C)C)c5F)c(Cl)c43)C2)n1` (relative stereo) [Compound 108a, 6-Amino-3-((1R,3S)-4′-chloro-3-(3-methyl-1,2,4-oxadiazol-5-yl)-1′,2′-dihydrospiro[cyclopentane-1,3′-pyrrolo[2,3-b]pyridin]-5′-yl)-2-fluoro-N,N-dimethylbenzamide] returned an inhibitory constant (Ki) of 8.27 nM.

`CN(C)C(=O)c1c(N)ccc(-c2cnc3c(c2Cl)[C@]2(CC[C@@](O)(CC#N)C2)CN3)c1F` (relative stereo) [Compound 109c, 6-Amino-3-((1R,3S)-4′-chloro-3-(cyanomethyl)-3-hydroxy-1′,2′-dihydrospiro[cyclopentane-1,3′-pyrrolo[2,3-b]pyridin]-5′-yl)-2-fluoro-N,N-dimethylbenzamide] registered a Ki of 32.5 nM.

Regarding `Cc1cnn([C@H]2CC[C@@]3(CNc4ncc(-c5ccc(N)c(C(=O)N(C)C)c5F)c(Cl)c43)C2)n1` (relative stereo) [Compound 114a, 6-Amino-3-((1R,3S)-4′-chloro-3-(4-methyl-2H-1,2,3-triazol-2-yl)-1′,2′-dihydrospiro[cyclopentane-1,3′-pyrrolo[2,3-b]pyridin]-5′-yl)-2-fluoro-N,N-dimethylbenzamide], the affinity corresponds to a Ki of 2.84 nM.

With `CN(C)C(=O)c1c(N)ccc(-c2cnc3c(c2Cl)[C@]2(CC[C@H](N4CCNC4=O)C2)CN3)c1F` (relative stereo) [Compound 115a, 6-Amino-3-((1R,3S)-4′-chloro-3-(2-oxoimidazolidin-1-yl)-1′,2′-dihydrospiro[cyclopentane-1,3′-pyrrolo[2,3-b]pyridin]-5′-yl)-2-fluoro-N,N-dimethylbenzamide], the inhibition constant (Ki) came out at 23 nM.

In turn, `CN(C)C(=O)c1c(N)ccc(-c2cnc3c(c2Cl)[C@]2(CC[C@@](O)(Cn4cncn4)C2)CN3)c1F` (relative stereo) [Compound 116a] returned a Ki of 153 nM.

`CN(C)C(=O)c1c(N)ccc(-c2cnc3c(c2Cl)[C@]2(CC[C@@](O)(Cn4ccnc4)C2)CN3)c1F` (relative stereo) [Compound 117a, 3-((1R,3S)-3-((1H-Imidazol-1-yl)methyl)-4′-chloro-3-hydroxy-1′,2′-dihydrospiro[cyclopentane-1,3′-pyrrolo[2,3-b]pyridin]-5′-yl)-6-amino-2-fluoro-N, N-dimethylbenzamide] had a Ki of 247 nM. Against the preceding molecule, the Ki is about 1.6-fold higher.

The molecule `CN(C)C(=O)c1c(N)ccc(-c2cnc3c(c2Cl)[C@]2(CC[C@H](n4cnc(N)n4)C2)CN3)c1F` (relative stereo) [Compound 119a, 6-Amino-3-((1R,3S)-3-(3-amino-1H-1,2,4-triazol-1-yl)-4′-chloro-1′,2′-dihydrospiro[cyclopentane-1,3′-pyrrolo[2,3-b]pyridin]-5′-yl)-2-fluoro-N,N-dimethylbenzamide] displayed a Ki of 76.8 nM.

`CN(C)C(=O)c1c(N)ccc(-c2cnc3c(c2Cl)[C@]2(CC[C@H](N4CCOCC4)C2)CN3)c1F` (relative stereo) [Compound 120a, 6-Amino-3-((1R,3S)-4′-chloro-3-morpholino-1′,2′-dihydrospiro[cyclopentane-1,3′-pyrrolo[2,3-b]pyridin]-5′-yl)-2-fluoro-N,N-dimethylbenzamide]: the inhibitory constant (Ki) was 479 nM.

In the case of `CN(C)C(=O)c1c(N)ccc(-c2cnc3c(c2Cl)[C@]2(CC[C@H](N4CCCC4)C2)CN3)c1F` (relative stereo) [Compound 121a, 6-Amino-3-((1R,3S)-4′-chloro-3-(pyrrolidin-1-yl)-1′,2′-dihydrospiro[cyclopentane-1,3′-pyrrolo[2,3-b]pyridin]-5′-yl)-2-fluoro-N,N-dimethylbenzamide], the Ki is 381 nM.

For the molecule `CN(C)C(=O)c1c(N)ccc(-c2cnc3c(c2Cl)[C@]2(CC[C@H](N4CCOC4=O)C2)CN3)c1F` (relative stereo) [Compound 124a, 6-Amino-3-((1R,3S)-4′-chloro-3-(2-oxooxazolidin-3-yl)-1′,2′-dihydrospiro[cyclopentane-1,3′-pyrrolo[2,3-b]pyridin]-5′-yl)-2-fluoro-N,N-dimethylbenzamide], the Ki was 35 nM.
